Assay results as given in patent publication US8575091B1, “Amylin analogues and pharmaceutical compositions thereof” (Novo Nordisk A/S, priority 2012, dated 2013).
Numbered stars: 1 amine (or outer) side, 2 acyl side, 3 side chain; on linkers, the order of the positions; unused ones are H or OH. Bridge positions count the residues as written; N and C are the ends. Side chains are listed from the residue outwards. Peptide text beside a SMILES is read from it. * marks the point of attachment. C20 diacid = O=C(O)CCCCCCCCCCCCCCCCCCC(=O)*; γGlu = O=C(O)[C@H](CCC(=O)[*:2])N[*:1]; AEEA = NCCOCCOCC(=O)O

Molecular target: T1, human amylin receptor (amylin 3(a) receptor: human calcitonin receptor + RAMP-3) (Homo sapiens, UniProt O60896+P30988)
T1 construct: expressed in transfected cells
T1 sequence (P30988 25-474): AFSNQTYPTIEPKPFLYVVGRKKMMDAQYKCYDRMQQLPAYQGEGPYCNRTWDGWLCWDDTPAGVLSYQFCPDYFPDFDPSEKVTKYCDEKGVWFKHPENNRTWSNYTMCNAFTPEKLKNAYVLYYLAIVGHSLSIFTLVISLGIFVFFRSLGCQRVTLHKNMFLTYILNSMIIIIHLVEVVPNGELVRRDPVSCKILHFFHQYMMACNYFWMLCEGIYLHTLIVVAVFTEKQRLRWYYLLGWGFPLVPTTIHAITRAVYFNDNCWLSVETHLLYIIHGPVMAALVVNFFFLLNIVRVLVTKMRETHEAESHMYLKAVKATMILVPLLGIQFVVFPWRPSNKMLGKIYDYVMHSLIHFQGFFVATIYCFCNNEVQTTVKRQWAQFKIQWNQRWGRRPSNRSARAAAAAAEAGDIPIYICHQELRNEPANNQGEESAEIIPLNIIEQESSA
T1 sequence (O60896 24-148 partner): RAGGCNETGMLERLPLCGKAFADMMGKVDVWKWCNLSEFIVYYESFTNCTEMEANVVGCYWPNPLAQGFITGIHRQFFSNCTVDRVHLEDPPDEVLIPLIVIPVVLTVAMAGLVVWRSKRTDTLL
Test: Assay (II)a functional assay, human amylin receptor (CRE luciferase, BHK cells)
Type: cell-based

[1] = Table 6, human functional selectivity (hCTR EC50 / hAmylin-R EC50)
[2] = Table 6a, human functional selectivity (hCTR EC50 / hAmylin-R EC50), at least 5
[3] = Table 6j, hCTR funct. EC50 / hAmylin-R funct. EC50
[4] = Table 6k, hCTR funct. EC50 / hAmylin-R funct. EC50

SMILES	Ratio hCT/hAmylin funct. [1]	Ratio hCT/hAmylin funct. [2]	Ratio hCT/hAmylin funct. [3]	Ratio hCT/hAmylin funct. [4]	Ratio hCT/hAmylin funct. (Table 6i, hCTR funct. EC50 / hAmylin-R funct. EC50)
CC[C@H](C)[C@H](NC(=O)[C@H](C)NC(=O)CNC(=O)[C@H](Cc1ccccc1)NC(=O)[C@H](CC(N)=O)NC(=O)[C@@H]1CCCN1C(=O)[C@H](CO)NC(=O)[C@H](CO)NC(=O)[C@H](Cc1c[nH]cn1)NC(=O)[C@H](CCCNC(=N)N)NC(=O)[C@H](CC(C)C)NC(=O)[C@H](Cc1ccccc1)NC(=O)[C@H](CC(N)=O)NC(=O)[C@H](C)NC(=O)[C@H](CC(C)C)NC(=O)[C@H](CCCNC(=N)N)NC(=O)[C@H](CCC(N)=O)NC(=O)[C@@H](NC(=O)[C@H](C)NC(=O)[C@@H]1CSSC[C@H](NC(=O)[C@@H](N)CCCCNC(=O)COCCOCCNC(=O)CC[C@H](NC(=O)CCCCCCCCCCCCCCCCCCC(=O)O)C(=O)O)C(=O)N[C@@H](CC(N)=O)C(=O)N[C@@H]([C@@H](C)O)C(=O)N[C@@H](C)C(=O)N[C@@H]([C@@H](C)O)C(=O)N1)[C@@H](C)O)C(=O)N1CCC[C@H]1C(=O)N[C@@H](CO)C(=O)N1CCC[C@H]1C(=O)N[C@H](C(=O)N1CCC[C@H]1C(=O)N[C@H](C(=O)NCC(=O)N[C@@H](CO)C(=O)N[C@@H](CC(N)=O)C(=O)N[C@H](C(=O)N[C@@H](Cc1ccc(O)cc1)C(N)=O)[C@@H](C)O)C(C)C)[C@@H](C)O [Example 54] (H-K([AEEA-γGlu-C20 diacid])CNTATCATQRLANFLRHSSPNFGAIPSPTPVGSNTY-NH2; disulfide 2-7; N-terminus assumed)	9.6	9.6	9.6	9.6	–
CC[C@H](C)[C@H](NC(=O)[C@H](C)NC(=O)CNC(=O)[C@H](Cc1ccccc1)NC(=O)[C@H](CC(N)=O)NC(=O)[C@@H]1CCCN1C(=O)[C@H](CO)NC(=O)[C@H](CO)NC(=O)[C@H](Cc1c[nH]cn1)NC(=O)[C@H](CCCNC(=N)N)NC(=O)[C@H](CC(C)C)NC(=O)[C@H](Cc1ccccc1)NC(=O)[C@H](CCC(=O)O)NC(=O)[C@H](C)NC(=O)[C@H](CC(C)C)NC(=O)[C@H](CCCNC(=N)N)NC(=O)[C@H](CCC(N)=O)NC(=O)[C@@H](NC(=O)[C@H](C)NC(=O)[C@@H]1CSSC[C@H](NC(=O)[C@@H](N)CCCCNC(=O)CC[C@H](NC(=O)CC[C@H](NC(=O)CCCCCCCCCCCCCCCCCCC(=O)O)C(=O)O)C(=O)O)C(=O)N[C@@H](CC(N)=O)C(=O)N[C@@H]([C@@H](C)O)C(=O)N[C@@H](C)C(=O)N[C@@H]([C@@H](C)O)C(=O)N1)[C@@H](C)O)C(=O)N1CCC[C@H]1C(=O)N[C@@H](CO)C(=O)N[C@@H](CO)C(=O)N[C@H](C(=O)N[C@@H](CC(N)=O)C(=O)N[C@H](C(=O)NCC(=O)N[C@@H](Cc1c[nH]cn1)C(=O)N[C@@H](CC(N)=O)C(=O)N[C@H](C(=O)N[C@@H](Cc1ccc(O)cc1)C(N)=O)[C@@H](C)O)C(C)C)[C@@H](C)O [Example 87] (H-K([γGlu-γGlu-C20 diacid])CNTATCATQRLAEFLRHSSPNFGAIPSSTNVGHNTY-NH2; disulfide 2-7)	3.8	–	3.8	–	3.8
CC[C@H](C)[C@H](NC(=O)[C@H](C)NC(=O)CNC(=O)[C@H](Cc1ccccc1)NC(=O)[C@H](CC(N)=O)NC(=O)[C@@H]1CCCN1C(=O)[C@H](CO)NC(=O)[C@H](CO)NC(=O)[C@H](Cc1c[nH]cn1)NC(=O)[C@H](CCCNC(=N)N)NC(=O)[C@H](CC(C)C)NC(=O)[C@H](Cc1ccccc1)NC(=O)[C@H](C)NC(=O)[C@H](C)NC(=O)[C@H](CC(C)C)NC(=O)[C@H](CCCNC(=N)N)NC(=O)[C@H](CCC(N)=O)NC(=O)[C@@H](NC(=O)[C@H](C)NC(=O)[C@@H]1CSSC[C@H](NC(=O)[C@@H](N)CCCCNC(=O)CC[C@H](NC(=O)CCCCCCCCCCCCCCCCCCC(=O)O)C(=O)O)C(=O)N[C@@H](CC(N)=O)C(=O)N[C@@H]([C@@H](C)O)C(=O)N[C@@H](C)C(=O)N[C@@H]([C@@H](C)O)C(=O)N1)[C@@H](C)O)C(=O)N1CCC[C@H]1C(=O)N[C@@H](CO)C(=O)N[C@@H](CO)C(=O)N[C@H](C(=O)N[C@@H](CC(N)=O)C(=O)N[C@H](C(=O)NCC(=O)N1CCC[C@H]1C(=O)N[C@@H](CC(N)=O)C(=O)N[C@H](C(=O)N[C@@H](Cc1ccc(O)cc1)C(N)=O)[C@@H](C)O)C(C)C)[C@@H](C)O [Example 94] (H-K([γGlu-C20 diacid])CNTATCATQRLAAFLRHSSPNFGAIPSSTNVGPNTY-NH2; disulfide 2-7; N-terminus assumed)	4.5	–	–	–	–
CC[C@H](C)[C@H](NC(=O)[C@H](C)NC(=O)CNC(=O)[C@H](Cc1ccccc1)NC(=O)[C@H](CC(N)=O)NC(=O)[C@@H]1CCCN1C(=O)[C@H](CO)NC(=O)[C@H](CO)NC(=O)[C@H](Cc1c[nH]cn1)NC(=O)[C@H](CCCNC(=N)N)NC(=O)[C@H](CC(C)C)NC(=O)[C@H](Cc1ccccc1)NC(=O)[C@H](CC(N)=O)NC(=O)[C@H](C)NC(=O)[C@H](CC(C)C)NC(=O)[C@H](CCCNC(=N)N)NC(=O)[C@H](CCC(N)=O)NC(=O)[C@@H](NC(=O)[C@H](C)NC(=O)[C@@H]1CSSC[C@H](NC(=O)[C@@H](N)CCCCNC(=O)COCCOCCNC(=O)COCCOCCNC(=O)CC[C@H](NC(=O)CCCCCCCCCCCCCCCCCCC(=O)O)C(=O)O)C(=O)N[C@@H](CC(N)=O)C(=O)N[C@@H]([C@@H](C)O)C(=O)N[C@@H](C)C(=O)N[C@@H]([C@@H](C)O)C(=O)N1)[C@@H](C)O)C(=O)N1CCC[C@H]1C(=O)N[C@@H](CO)C(=O)N[C@@H](CO)C(=O)N[C@H](C(=O)N[C@@H](CC(N)=O)C(=O)N[C@H](C(=O)NCC(=O)N[C@@H](CCCNC(=N)N)C(=O)N[C@@H](CC(N)=O)C(=O)N[C@H](C(=O)N[C@@H](Cc1ccc(O)cc1)C(N)=O)[C@@H](C)O)C(C)C)[C@@H](C)O [Example 95] (H-K([AEEA-AEEA-γGlu-C20 diacid])CNTATCATQRLANFLRHSSPNFGAIPSSTNVGRNTY-NH2; disulfide 2-7 (inferred); N-terminus and C-terminus assumed)	33.0	33.0	33.0	33.0	–
CC[C@H](C)[C@H](NC(=O)[C@H](C)NC(=O)CNC(=O)[C@H](Cc1ccccc1)NC(=O)[C@H](CC(N)=O)NC(=O)[C@@H]1CCCN1C(=O)[C@H](CO)NC(=O)[C@H](CO)NC(=O)[C@H](Cc1c[nH]cn1)NC(=O)[C@H](CCCNC(=N)N)NC(=O)[C@H](CC(C)C)NC(=O)[C@H](Cc1ccccc1)NC(=O)[C@H](C)NC(=O)[C@H](C)NC(=O)[C@H](CC(C)C)NC(=O)[C@H](CCCNC(=N)N)NC(=O)[C@H](CCC(N)=O)NC(=O)[C@@H](NC(=O)[C@H](C)NC(=O)[C@@H]1CSSC[C@H](NC(=O)[C@H](CCCNC(=N)N)NC(=O)CNC(=O)CC[C@H](NC(=O)CCCCCCCCCCCCCCCCCCC(=O)O)C(=O)O)C(=O)N[C@@H](CC(N)=O)C(=O)N[C@@H]([C@@H](C)O)C(=O)N[C@@H](C)C(=O)N[C@@H]([C@@H](C)O)C(=O)N1)[C@@H](C)O)C(=O)N1CCC[C@H]1C(=O)N[C@@H](CO)C(=O)N[C@@H](CO)C(=O)N[C@H](C(=O)N[C@@H](CC(N)=O)C(=O)N[C@H](C(=O)NCC(=O)N[C@@H](Cc1c[nH]cn1)C(=O)N[C@@H](CC(N)=O)C(=O)N[C@H](C(=O)N[C@@H](Cc1ccc(O)cc1)C(N)=O)[C@@H](C)O)C(C)C)[C@@H](C)O [Example 101] ({C20 diacid-γGlu}-GRCNTATCATQRLAAFLRHSSPNFGAIPSSTNVGHNTY-NH2; disulfide 3-8 (inferred); C-terminus assumed)	4.9	–	–	–	–
